Experimental data from PubChem BioAssay (NCI).
Where “and” joins values, the source holds several entries; their conditions need not be identical. Equal values may be shown once.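 Method: 48-hour compound exposure of cells in 96-well plates, five concentrations, linear interpolation of endpoints. GI50 marks 50% less growth. TGI denotes the concentration required for complete inhibition of growth.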

Key:
Test in all cases: growth of human tumour cells (NCI), 48 h
[1] = tested on: EKVX NSCLC
[2] = tested on: MALME-3M melanoma
[3] = tested on: SNB-19 CNS
[4] = tested on: HS 578T breast
[5] = tested on: RXF 393 renal
[6] = tested on: NCI-H23 lung
[7] = tested on: SK-MEL-28 melanoma
[8] = tested on: MDA-MB-435
[9] = tested on: NCI-H226 lung
[10] = tested on: DU-145 prostate

Compound	GI50 [1] [µM]	TGI [1]	GI50 [2] [µM]	TGI [2]	GI50 [3] [µM]	TGI [3]	GI50 [4] [µM]	TGI [4]	GI50 [5] [µM]	TGI [5]	GI50 [6] [µM]	TGI [6]	GI50 [7] [µM]	TGI [7]	GI50 [8] [µM]	TGI [8]	GI50 [9] [µM]	TGI [9]	GI50 [10] [µM]	TGI [10]
Cc1ccc(-c2cc(C(Cl)Cl)on2)cc1	46.1	> 100 µM	> 100	> 100 µM	> 100	> 100 µM	> 100	> 100 µM	> 100	> 100 µM	55.3	> 100 µM	> 100	> 100 µM	62.9	> 100 µM	48.2	> 100 µM	91.4	> 100 µM
CCCCCCCCCCCCNC(=O)[C@H]1CSC(c2ccsc2)N1 (stereo not given in full)	0.991	1.85 µM	1.14	2.12 µM	0.952	1.83 µM	1.17	2.45 µM	0.96	1.69 µM	0.992	1.94 µM	0.814	1.54 µM	0.68	1.35 µM	0.896	1.74 µM	0.979	1.82 µM
COc1ccc(-c2nn(-c3cccc(Cl)c3)cc2/C=C2\C(=N)N(c3ccccc3)N=C2N)cc1	1.5	60.5 µM	4.9	46.1 µM	8.58	> 100 µM	19.6	> 100 µM	17.5	> 80.6 µM	4.62	43.5 µM	6.59	> 100 µM	0.495	21.2 µM	6.58	> 66.8 µM	1.37	> 47.9 µM
NCCn1c2c(c3ccccc3c1=O)C(=O)c1ccccc1-2	1.48	4.48 µM	0.577	3.2 µM	0.251	2.09 µM	1.58	6.66 µM	1.87	6.55 µM	0.237	1.86 µM	1.46	3.14 µM	0.897	2.51 µM	0.452	3.02 µM	–	2.58 µM
CNc1ccc(N=Nc2cccc3ncccc23)cc1	3.62	> 100 µM	> 58.4	> 100 µM	> 80.6	> 100 µM	24.7	> 100 µM	28.7	> 100 µM	17.1	> 100 µM	> 100	> 100 µM	19.7	> 100 µM	> 100	> 100 µM	> 100	> 100 µM
COc1ccccc1-c1nccc(COc2ccccc2C[C@@H](Oc2ncnc3sc(-c4ccc(F)cc4)c(-c4ccc(OCCN5CCN(C)CC5)c(Cl)c4C)c23)C(=O)O)n1	1.32	5.03 µM	1.63	3.37 µM	2.05	4.58 µM	0.515	3.29 µM	0.61	2.16 µM	1.11	3.84 µM	1.76	3.36 µM	0.45	2.21 µM	3	10.9 µM	5.84	13.9 µM
COc1cccc(C2CC(=O)Nc3cc4c(cc32)CCC4)c1OC (stereo not given)	–	–	5.98	36 µM	8.66	> 100 µM	3.04	34.8 µM	3.34	13.7 µM	3.4	26.1 µM	5.33	28.3 µM	1.44	4.1 µM	9.7	44.2 µM	3.48	16.1 µM
Cc1nnc(N=Nc2c(O)[nH]c3ccccc23)[nH]c1=O	–	> 100 µM	–	> 100 µM	–	> 100 µM	–	> 100 µM	–	–	–	–	–	> 100 µM	–	> 100 µM	–	> 100 µM	–	> 100 µM
CC(=O)OC1Oc2cc(C)c(C)cc2-c2oc(=O)c(-c3ccccc3)cc21 (stereo not given)	0.685	> 100 µM	0.407	> 34.7 µM	0.496	28.7 µM	0.244	1.42 µM	0.343	37.1 µM	0.615	> 100 µM	0.464	55.6 µM	0.036	0.199 µM	2.77	–	0.297	1.2 µM
Cc1cc(C(=O)Nc2cc(Nc3ncccc3-c3ncnc4nc[nH]c34)ccc2F)cc(C(C)(C)C#N)c1	4.03	> 100 µM	–	–	4.31	> 100 µM	1.92	> 100 µM	4.82	42 µM	0.379	> 100 µM	0.0402	> 100 µM	0.182	> 100 µM	0.527	> 100 µM	6.2	> 100 µM
CCCC(=O)Nc1cn(COC)c(C(=O)N2C[C@H]3C[C@@]34C2=CC(=O)c2[nH]cc(C)c24)n1	39.1	39 µM and > 100 µM	4.22	9.45 µM and 26 µM	10.4	50 µM and > 100 µM	20.9	43.1 µM and > 100 µM	3.05	26.9 µM and 8.82 µM	2.59	11.8 µM and 16.7 µM	17.3	35.7 µM and > 100 µM	13.4	26.2 µM and > 100 µM	–	39.4 µM	2.56	5 µM and 11.4 µM
COc1ccc(-c2nn(-c3cccc(Cl)c3)cc2-c2cc(-c3cccs3)no2)cc1	2.07	13.5 µM	2.6	10.6 µM	6.09	> 100 µM	4.42	45.5 µM	3.49	20.1 µM	3.82	20.8 µM	4.93	17.8 µM	3.26	17.3 µM	4.11	30.3 µM	7.08	35.8 µM
COC(=O)C1=C(C(=O)OC)C(C(=O)OC)C(C(=O)OC)C(C(=O)OC)(C(=O)OC)C(C(=O)OC)=C1C(=O)OC (stereo not given)	–	35.4 µM	–	15.7 µM	–	33 µM	–	75.3 µM	–	16.7 µM	–	35.8 µM	–	29.3 µM	–	37.5 µM	–	25.1 µM	–	32.1 µM
Cc1cc(Nc2cc(N3CCN(C)CC3)nc(C#Cc3ccccc3)n2)n[nH]1	11	23.4 µM	2	13.9 µM	5.59	19.5 µM	1.74	6.22 µM	1.18	3.79 µM	3.25	18.5 µM	5.05	18.3 µM	3.24	16.1 µM	2.17	14.3 µM	4.18	18.2 µM
C=C1C(=O)C23CC1CCC2C12CO[C@@]3(O)[C@@H](O)C1C(C)(C)C=CC2=O (stereo not given in full)	18.7	11.8 µM and 34.7 µM	6.11	–	20.4	–	–	81.6 µM	–	1.34 µM	2.9	1.42 µM and 7.88 µM	1.58	1.48 µM and 3.35 µM	–	11.1 µM	–	12.5 µM	–	41.3 µM
N=C(N)SCC(=O)O	–	> 100 µM	–	> 100 µM	–	> 100 µM	–	> 100 µM	–	> 100 µM	–	> 100 µM	–	> 100 µM	–	> 100 µM	–	> 100 µM	–	> 100 µM
CN1CCN(CCCOc2ccc3ncnc(Nc4ccc(Oc5cccc(F)c5)c(Cl)c4)c3c2)CC1	1.31	3.56 µM	1.56	3.05 µM	1.64	3.16 µM	1.76	4.26 µM	1.56	3.1 µM	1.48	3.02 µM	1.7	3.11 µM	1.67	3.19 µM	–	–	1.31	2.79 µM
COc1cc(/C=C2\C(=O)Nc3ccc(Br)cc32)cc(OC)c1OC	14.3	> 100 µM	0.606	16.8 µM	29.8	> 100 µM	2.94	> 78.7 µM	–	–	8.07	66 µM	58.9	> 100 µM	2.02	7.19 µM	60.9	> 100 µM	18.7	> 100 µM
Fc1ccc(-c2cc(-c3cn[nH]c3-c3ccccn3)ccn2)cc1	> 25	> 25 µM	> 25	> 25 µM	> 25	> 25 µM	> 25	> 25 µM	> 25	> 25 µM	> 12.8	> 25 µM	> 25	> 25 µM	> 25	> 25 µM	> 25	> 25 µM	> 25	> 25 µM
NC(=O)c1c(NC(=O)c2cccc(C(F)(F)F)c2)sc2c1CCC(=O)C2	2.12	> 100 µM	0.869	3.73 µM	0.432	> 100 µM	0.545	> 100 µM	0.352	2.92 µM	0.317	4.29 µM	1	15.2 µM	0.622	7.68 µM	5.37	> 100 µM	3.73	> 100 µM
O=c1c2ccccc2c(=O)c2c1sc1c(=O)c3ccc(O)cc3c(=O)c12	1.34	3.66 µM	0.152	0.318 µM	0.342	1.24 µM	0.33	0.973 µM	1.63	4.3 µM	0.181	0.505 µM	0.247	0.541 µM	0.173	0.326 µM	–	–	0.174	0.312 µM
O=C(Nc1nc2ccc(F)cc2s1)c1cccnc1Nc1ccc(Cl)cc1Cl	2.02	16 µM	2.19	12.1 µM	3.22	14.7 µM	2.92	19.7 µM	3.31	11.7 µM	2.28	9.56 µM	3.69	18.6 µM	3.04	14.3 µM	2.72	19.3 µM	3.22	13.4 µM
COc1cc(/C=C2/C(=O)N(C(=O)c3ccccc3O)N=C2C)ccc1O	–	> 77.7 µM	–	> 100 µM	–	> 100 µM	–	> 100 µM	–	–	–	–	–	> 100 µM	–	> 100 µM	–	31.2 µM	–	> 100 µM
CC(=O)Oc1ccc2c(c1)O/C(=C\c1ccc(O)cc1)C2=O	–	> 100 µM	–	–	–	> 100 µM	–	> 100 µM	–	> 100 µM	–	> 100 µM	–	> 100 µM	–	> 100 µM	–	> 100 µM	–	> 100 µM
Cc1nc2cc(Nc3nc(Nc4ccc(F)cc4)nc(-c4ccc(Cl)cc4)n3)ccc2n1Cc1ccccc1	–	–	5.29	22.4 µM	9.77	> 100 µM	12.2	> 100 µM	4.21	38.5 µM	14.7	> 100 µM	8.63	> 100 µM	3.6	> 100 µM	11.4	37.2 µM	23.4	> 100 µM
O=C1c2c(O)ccc(O)c2C(=O)c2c(NCCNCCO)ccc(NCCNCCO)c21	0.564	3.68 µM and 4.55 µM and 1.28 µM	–	1.45 µM and 0.955 µM and 0.974 µM	–	0.546 µM and 2.08 µM and 0.79 µM	–	0.296 µM and 1.88 µM and 1.03 µM	–	0.307 µM and 0.368 µM and 0.493 µM	–	–	–	1.66 µM and 1.03 µM and 2.31 µM	0.297	1.65 µM and 1.07 µM and 1.82 µM	–	0.0547 µM and 0.1 µM and 0.136 µM	–	0.0832 µM and 0.465 µM and 0.31 µM
CC(C)(C)OC(=O)n1c(Cl)c(C(=O)N=C=S)c2ccccc21	29.6	98.7 µM	–	–	44.4	> 100 µM	25.5	68.2 µM	53.4	> 100 µM	28.4	> 100 µM	80.7	> 100 µM	80.8	> 100 µM	> 100	> 100 µM	36	> 100 µM
N#Cc1c(-c2ccc(Cl)cc2)csc1NC(=O)Nc1cccc(C(F)(F)F)c1	1.97	9.75 µM	–	–	3.39	13.4 µM	3.25	23.9 µM	2.33	5.96 µM	1.99	5.33 µM	2.65	8.97 µM	2.73	10.3 µM	3.42	10.5 µM	3.21	13.9 µM
